Laboratory results: ChEMBL document CHEMBL1201862, “PubChem BioAssay data set” (2004)
Calls of active or inactive are those of the source.

Experiments:
Protein Wnt-3a = Protein Wnt-3a (Mus musculus, UniProt P27467); test: antagonism of Wnt3a pathway luciferase reporter – Wnt-LIGHT cells, luminescence, selectivity assay for Gli-SUFU antagonist project, dose response (AID 651570); assay type: functional; conditions: read-out: IC50_Mean;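 further: Wnt-LIGHT reporter cells stimulated with conditioned medium from Wnt3a-producing cells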
Protein Wnt-3a, sequence (P27467 whole entry): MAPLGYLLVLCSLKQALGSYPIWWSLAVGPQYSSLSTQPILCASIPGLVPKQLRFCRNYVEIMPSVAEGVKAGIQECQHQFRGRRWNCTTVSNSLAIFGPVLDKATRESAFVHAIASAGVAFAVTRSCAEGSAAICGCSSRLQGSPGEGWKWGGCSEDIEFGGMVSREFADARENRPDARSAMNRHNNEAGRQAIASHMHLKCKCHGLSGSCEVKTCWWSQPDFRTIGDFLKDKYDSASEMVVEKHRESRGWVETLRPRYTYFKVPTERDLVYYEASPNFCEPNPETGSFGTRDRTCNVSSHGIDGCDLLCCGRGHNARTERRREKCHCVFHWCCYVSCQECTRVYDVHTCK

[1] = target: T1, Mannose-6-phosphate isomerase (Homo sapiens, UniProt P34949); test: phosphomannose isomerase inhibition – biochemical, fluorescence intensity, confirmation (AID 1535)
T1 sequence (P34949 whole entry): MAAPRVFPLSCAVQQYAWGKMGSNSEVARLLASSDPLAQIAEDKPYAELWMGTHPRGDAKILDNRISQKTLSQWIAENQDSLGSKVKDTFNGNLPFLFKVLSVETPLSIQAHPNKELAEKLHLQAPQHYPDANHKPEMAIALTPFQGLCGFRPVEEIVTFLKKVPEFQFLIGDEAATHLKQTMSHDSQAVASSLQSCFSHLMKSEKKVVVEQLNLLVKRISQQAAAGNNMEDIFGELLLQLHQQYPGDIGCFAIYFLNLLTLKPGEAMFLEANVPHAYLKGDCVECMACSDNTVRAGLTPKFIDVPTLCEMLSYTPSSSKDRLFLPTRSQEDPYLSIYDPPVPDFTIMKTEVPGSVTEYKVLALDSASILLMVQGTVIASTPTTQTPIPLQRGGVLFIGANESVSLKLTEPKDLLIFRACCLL

Phosphomannomutase 2 = target: T2, Phosphomannomutase 2 (Homo sapiens, UniProt O15305); test: Counter screen SAR assay for PMM2 inhibitors via a fluorescence intensity assay. [Related pubchem assays (depositor defined):AID1545, AID1574]
T2 sequence (O15305 whole entry): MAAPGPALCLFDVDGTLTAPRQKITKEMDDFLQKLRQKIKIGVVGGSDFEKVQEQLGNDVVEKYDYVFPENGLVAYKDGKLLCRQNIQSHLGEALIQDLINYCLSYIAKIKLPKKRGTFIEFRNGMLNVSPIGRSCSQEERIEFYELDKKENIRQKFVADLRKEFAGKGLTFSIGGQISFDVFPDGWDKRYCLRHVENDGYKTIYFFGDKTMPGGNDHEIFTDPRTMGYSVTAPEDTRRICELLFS

BJ [2] = test: BJ-TERT fibroblast viability loss – cell-based, RAS-independent, luminescence, dose response (AID 1933); assay type: functional; conditions: Homo sapiens
BJ [3] = test: cells; assay type: functional, cell-based; conditions: Homo sapiens
BJ [4] = test: BJ-TERT-LT-ST fibroblast viability loss – cell-based, RAS-independent, luminescence, dose response (AID 1935); assay type: functional; conditions: Homo sapiens;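 further: BJ fibroblasts immortalized with TERT plus LT and ST oncogenes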
[5] = DRD fibroblast viability loss – cell-based, non-viral oncogenic, luminescence, dose response (AID 1934); assay type: functional; conditions: Homo sapiens
BJ [6] = test: growth inhibition of engineered Ras-driven BJ cells – cell-based, alamar blue fluorescence, cherrypicked samples, dose response (AID 2631); assay type: functional; conditions: Homo sapiens;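 further: confirmatory dose-response assay in RAS-dependent BJ fibroblasts engineered with TERT, LT and ST, with cytotoxicity read by fluorescence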
Cytochrome P450 2C9 = Cytochrome P450 2C9 (Homo sapiens, UniProt P11712)
Cytochrome P450 2C9, sequence (P11712 whole entry): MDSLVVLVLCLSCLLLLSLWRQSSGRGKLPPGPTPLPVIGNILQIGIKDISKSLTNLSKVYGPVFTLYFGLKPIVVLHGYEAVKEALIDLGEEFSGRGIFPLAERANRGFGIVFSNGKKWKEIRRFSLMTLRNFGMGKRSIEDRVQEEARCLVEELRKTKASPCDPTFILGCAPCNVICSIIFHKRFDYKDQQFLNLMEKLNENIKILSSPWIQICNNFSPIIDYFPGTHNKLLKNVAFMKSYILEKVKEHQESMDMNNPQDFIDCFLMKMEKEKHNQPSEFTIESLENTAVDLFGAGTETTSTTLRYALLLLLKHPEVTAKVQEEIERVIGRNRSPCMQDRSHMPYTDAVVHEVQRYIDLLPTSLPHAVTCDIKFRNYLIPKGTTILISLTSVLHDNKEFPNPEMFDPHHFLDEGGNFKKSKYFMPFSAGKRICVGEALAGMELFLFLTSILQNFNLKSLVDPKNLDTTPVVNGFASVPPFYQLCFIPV

Cytochrome P450 3A4 [7] = target: T3, Cytochrome P450 3A4 (Homo sapiens, UniProt P08684);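 further: CYP3A4 tested as one member of a cytochrome P450 panel screen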
T3 sequence (P08684 whole entry): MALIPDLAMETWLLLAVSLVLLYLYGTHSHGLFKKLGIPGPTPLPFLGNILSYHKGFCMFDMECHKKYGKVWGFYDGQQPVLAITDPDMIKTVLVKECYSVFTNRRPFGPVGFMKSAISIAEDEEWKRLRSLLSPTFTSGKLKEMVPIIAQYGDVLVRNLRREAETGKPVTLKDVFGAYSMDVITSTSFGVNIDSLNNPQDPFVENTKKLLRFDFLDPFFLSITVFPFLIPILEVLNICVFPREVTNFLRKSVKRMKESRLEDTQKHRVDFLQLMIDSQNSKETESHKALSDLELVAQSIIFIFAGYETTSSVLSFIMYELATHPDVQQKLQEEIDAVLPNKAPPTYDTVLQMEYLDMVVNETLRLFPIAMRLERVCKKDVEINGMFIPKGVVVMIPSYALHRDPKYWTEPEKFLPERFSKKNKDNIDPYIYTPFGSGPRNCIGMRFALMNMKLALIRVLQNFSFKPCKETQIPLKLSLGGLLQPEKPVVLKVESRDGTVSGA

[8] = system: Streptococcus sp. 'group A'; test: Streptococcus pyogenes SK(-)GAS viability under kanamycin – luminescence, BacTiterGlo, confirmation, counter-screen for streptokinase expression inhibitor project, dose response (AID 1900); assay type: functional, organism-based
Streptokinase A = target: T4, Streptokinase A (Streptococcus pyogenes serotype M1, UniProt P10520); test: viability-normalized secreted streptokinase activity reduction – plasminogen activation absorbance, OD405, dose response (AID 1914); assay type: functional, Streptococcus pyogenes M1 GAS;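 further: secreted streptokinase activity via plasminogen activation per viability signal from cell pellet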
T4 sequence (P10520 whole entry): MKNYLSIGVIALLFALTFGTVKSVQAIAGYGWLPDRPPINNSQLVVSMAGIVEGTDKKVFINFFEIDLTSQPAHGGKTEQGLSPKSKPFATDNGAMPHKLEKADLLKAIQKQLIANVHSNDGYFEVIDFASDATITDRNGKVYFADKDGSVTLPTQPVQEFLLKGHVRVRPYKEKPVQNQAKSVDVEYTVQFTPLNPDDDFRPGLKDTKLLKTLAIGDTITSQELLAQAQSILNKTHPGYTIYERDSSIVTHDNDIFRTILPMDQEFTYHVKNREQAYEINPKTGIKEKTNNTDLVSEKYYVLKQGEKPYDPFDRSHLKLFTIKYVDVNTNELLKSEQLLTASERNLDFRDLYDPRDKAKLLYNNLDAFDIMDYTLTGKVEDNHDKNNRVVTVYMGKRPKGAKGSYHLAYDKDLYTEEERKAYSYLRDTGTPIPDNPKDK

Streptococcus = test: GAS UMAA2166 growth inhibition – luminescence, BacTiterGlo, counter-screen for streptokinase expression inhibitor project, dose response (AID 1915); assay type: functional, organism-based;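 further: potency for reduction of bacterial viability or growth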
Cytochrome P450 2D6 = Cytochrome P450 2D6 (Homo sapiens, UniProt P10635);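 further: CYP2D6 member of a cytochrome P450 panel assay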
Cytochrome P450 2D6, sequence (P10635 whole entry): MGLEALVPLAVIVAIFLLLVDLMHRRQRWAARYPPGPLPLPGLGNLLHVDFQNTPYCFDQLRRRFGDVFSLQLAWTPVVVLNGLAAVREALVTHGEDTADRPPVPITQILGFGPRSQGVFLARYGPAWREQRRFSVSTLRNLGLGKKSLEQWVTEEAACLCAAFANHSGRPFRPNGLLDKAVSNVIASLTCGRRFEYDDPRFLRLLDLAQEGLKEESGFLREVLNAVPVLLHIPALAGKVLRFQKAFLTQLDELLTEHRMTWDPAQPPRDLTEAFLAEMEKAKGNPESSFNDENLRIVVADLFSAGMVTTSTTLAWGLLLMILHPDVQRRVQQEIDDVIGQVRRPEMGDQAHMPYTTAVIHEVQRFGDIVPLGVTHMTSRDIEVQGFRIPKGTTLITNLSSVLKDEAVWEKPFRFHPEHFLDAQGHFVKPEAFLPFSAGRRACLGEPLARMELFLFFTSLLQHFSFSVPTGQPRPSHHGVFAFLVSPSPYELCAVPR

[9] = viability of uninfected HEp-2 cells – cell-based, HTS, cytotoxicity control for RSV inhibitor project, dose response (AID 2410); assay type: functional; conditions: human respiratory syncytial virus
[10] = target: Voltage-dependent T-type calcium channel subunit alpha-1H (Homo sapiens, UniProt O95180); assay type: functional;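 further: channel activity triggered by adding a high calcium stimulation buffer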
Voltage-dependent T-type calcium channel subunit alpha-1H, sequence (O95180 whole entry): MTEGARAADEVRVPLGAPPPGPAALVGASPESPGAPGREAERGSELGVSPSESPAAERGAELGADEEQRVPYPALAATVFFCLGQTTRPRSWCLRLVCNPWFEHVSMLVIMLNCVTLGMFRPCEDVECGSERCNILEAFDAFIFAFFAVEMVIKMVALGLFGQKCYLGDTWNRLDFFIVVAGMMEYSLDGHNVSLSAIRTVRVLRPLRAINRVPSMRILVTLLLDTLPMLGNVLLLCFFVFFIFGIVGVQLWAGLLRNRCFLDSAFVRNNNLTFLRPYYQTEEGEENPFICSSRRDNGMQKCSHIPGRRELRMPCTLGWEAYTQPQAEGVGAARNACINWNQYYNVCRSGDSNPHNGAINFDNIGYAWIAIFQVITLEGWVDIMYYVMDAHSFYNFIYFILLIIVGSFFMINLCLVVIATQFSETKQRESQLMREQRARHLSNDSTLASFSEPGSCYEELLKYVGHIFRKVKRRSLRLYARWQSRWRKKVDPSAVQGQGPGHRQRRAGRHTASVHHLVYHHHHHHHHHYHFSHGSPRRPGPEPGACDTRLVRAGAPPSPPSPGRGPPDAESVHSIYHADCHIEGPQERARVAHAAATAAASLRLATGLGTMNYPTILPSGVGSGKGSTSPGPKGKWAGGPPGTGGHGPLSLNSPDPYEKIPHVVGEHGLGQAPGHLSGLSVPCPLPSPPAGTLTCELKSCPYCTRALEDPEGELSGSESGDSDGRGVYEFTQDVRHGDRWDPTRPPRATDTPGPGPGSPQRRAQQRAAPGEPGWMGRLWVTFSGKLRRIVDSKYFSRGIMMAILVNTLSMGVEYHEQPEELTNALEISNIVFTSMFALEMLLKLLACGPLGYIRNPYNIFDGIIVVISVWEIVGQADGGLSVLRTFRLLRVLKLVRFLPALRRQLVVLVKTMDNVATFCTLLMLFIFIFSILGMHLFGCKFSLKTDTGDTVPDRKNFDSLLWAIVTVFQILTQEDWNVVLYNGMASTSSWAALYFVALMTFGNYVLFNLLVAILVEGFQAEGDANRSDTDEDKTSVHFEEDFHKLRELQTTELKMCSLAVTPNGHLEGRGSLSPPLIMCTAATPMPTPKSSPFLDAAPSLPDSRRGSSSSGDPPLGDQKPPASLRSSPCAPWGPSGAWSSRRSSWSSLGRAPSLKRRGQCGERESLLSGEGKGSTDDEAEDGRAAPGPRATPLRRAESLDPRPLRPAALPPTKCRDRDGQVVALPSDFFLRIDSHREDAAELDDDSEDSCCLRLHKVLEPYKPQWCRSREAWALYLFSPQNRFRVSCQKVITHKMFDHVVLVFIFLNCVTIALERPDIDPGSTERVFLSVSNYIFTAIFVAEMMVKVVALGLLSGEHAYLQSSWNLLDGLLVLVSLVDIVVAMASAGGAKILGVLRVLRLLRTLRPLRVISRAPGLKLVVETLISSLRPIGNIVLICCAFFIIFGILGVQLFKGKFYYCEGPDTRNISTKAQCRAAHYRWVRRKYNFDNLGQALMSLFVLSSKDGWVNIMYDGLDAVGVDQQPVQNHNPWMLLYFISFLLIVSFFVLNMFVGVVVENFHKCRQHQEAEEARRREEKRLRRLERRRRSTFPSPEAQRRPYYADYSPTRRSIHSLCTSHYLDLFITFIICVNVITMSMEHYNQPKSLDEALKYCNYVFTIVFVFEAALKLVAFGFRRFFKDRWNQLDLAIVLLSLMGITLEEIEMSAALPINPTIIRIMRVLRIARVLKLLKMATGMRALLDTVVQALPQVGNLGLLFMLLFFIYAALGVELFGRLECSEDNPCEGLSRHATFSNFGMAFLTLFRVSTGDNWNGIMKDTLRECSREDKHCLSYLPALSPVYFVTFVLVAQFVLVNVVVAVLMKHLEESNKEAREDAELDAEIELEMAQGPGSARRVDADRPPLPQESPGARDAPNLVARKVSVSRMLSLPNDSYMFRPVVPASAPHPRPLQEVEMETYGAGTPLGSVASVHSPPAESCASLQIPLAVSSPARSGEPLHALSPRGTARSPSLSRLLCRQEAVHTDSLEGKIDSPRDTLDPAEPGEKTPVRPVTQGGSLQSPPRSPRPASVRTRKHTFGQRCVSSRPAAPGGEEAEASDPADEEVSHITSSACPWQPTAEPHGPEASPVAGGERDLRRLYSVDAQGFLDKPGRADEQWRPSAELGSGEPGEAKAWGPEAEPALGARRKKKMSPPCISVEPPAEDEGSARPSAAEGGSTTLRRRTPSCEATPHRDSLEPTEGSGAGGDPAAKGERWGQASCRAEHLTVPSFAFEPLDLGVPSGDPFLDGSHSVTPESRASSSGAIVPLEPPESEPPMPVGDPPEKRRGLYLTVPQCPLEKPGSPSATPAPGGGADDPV

INS1 = test: INS-1E survival protection against cytokine death – cell-based, luminescence, retest, dose response (AID 449756); assay type: functional; conditions: Rattus norvegicus;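 further: cell death triggered by IL-1 beta plus TNF-alpha plus IFN-gamma mixture; protective hits raise ATP signal compared with cytokine alone wells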
Protein skinhead-1 = target: T5, Protein skinhead-1 (Caenorhabditis elegans, UniProt P34707); assay type: functional
T5 sequence (P34707 whole entry): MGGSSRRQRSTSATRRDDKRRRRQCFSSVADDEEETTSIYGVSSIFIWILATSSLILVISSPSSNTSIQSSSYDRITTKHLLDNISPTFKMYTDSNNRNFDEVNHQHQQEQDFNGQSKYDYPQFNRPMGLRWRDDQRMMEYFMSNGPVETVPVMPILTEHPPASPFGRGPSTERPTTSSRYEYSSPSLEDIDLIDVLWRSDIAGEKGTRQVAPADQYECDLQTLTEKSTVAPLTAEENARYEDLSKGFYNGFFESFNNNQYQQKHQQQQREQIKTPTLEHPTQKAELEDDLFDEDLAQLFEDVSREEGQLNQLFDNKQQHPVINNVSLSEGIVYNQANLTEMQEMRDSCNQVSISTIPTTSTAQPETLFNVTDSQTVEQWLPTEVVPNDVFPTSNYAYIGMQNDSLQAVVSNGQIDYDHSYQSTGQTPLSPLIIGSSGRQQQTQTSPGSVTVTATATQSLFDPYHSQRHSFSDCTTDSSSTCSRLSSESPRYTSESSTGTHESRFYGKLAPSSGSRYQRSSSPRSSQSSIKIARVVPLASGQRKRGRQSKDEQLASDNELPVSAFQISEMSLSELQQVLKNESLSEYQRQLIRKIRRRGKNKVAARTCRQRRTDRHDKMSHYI

[11] = target: T6, Alkaline phosphatase, tissue-nonspecific isozyme (Homo sapiens, UniProt P05186); test: potency against alkaline phosphatase TNAP – biochemical, luminescent, dose response, SAR follow-up (AID 1056)
T6 sequence (P05186 whole entry): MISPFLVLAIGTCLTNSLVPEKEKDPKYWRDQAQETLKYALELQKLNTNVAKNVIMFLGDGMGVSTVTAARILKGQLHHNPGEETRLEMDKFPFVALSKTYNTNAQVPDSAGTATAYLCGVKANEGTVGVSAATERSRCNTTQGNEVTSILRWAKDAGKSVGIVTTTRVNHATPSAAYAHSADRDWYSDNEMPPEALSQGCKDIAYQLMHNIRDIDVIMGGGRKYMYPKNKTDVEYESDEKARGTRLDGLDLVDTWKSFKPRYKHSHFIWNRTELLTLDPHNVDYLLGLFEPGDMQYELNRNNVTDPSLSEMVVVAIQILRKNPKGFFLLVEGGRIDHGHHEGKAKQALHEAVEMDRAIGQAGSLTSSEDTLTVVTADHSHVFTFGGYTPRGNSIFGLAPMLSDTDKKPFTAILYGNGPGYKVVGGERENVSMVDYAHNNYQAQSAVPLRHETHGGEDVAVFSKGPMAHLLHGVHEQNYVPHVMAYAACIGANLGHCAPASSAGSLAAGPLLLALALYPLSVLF

Cytochrome P450 3A4 [12] = target: T3, Cytochrome P450 3A4; remark: listed apart in the source

SMILES: CC(C)C[C@H]1CN=C(N(C)C)N1CCCCc1ccccc1
- IC50 (Protein Wnt-3a): 11.7 µM (active)

SMILES: COc1cc(N=c2ssnc2Cl)cc(OC)c1
- IC50 [1]: 17.2 µM (active)
- IC50 (Phosphomannomutase 2): > 100 µM (inactive)

SMILES: COc1cc(OC)c(C2=NOC(C(=O)NCc3cccs3)C2)cc1Cl (centres undefined)
- EC50 (BJ [2]): > 150 µM (not active)
- EC50 (BJ [3]): 63.7 µM (active)
- EC50 (BJ [4]): 32 µM (active)
- EC50 [5]: 17.7 µM (inconclusive)
- EC50 (BJ [6]): 108 µM (active)

SMILES: CC(C)(C)c1ccc(-c2c(C#N)c(N)nc3c2CCCC3)s1
- AC50 (Cytochrome P450 2C9): 7.08 µM (inconclusive)
- AC50 (Cytochrome P450 3A4 [7]): inconclusive

SMILES: O=C(c1cnc(-c2ccccc2)s1)c1ccc(Cl)cc1Cl
- EC50 [8]: 16.2 µM (active)
- EC50 (Streptokinase A): 33.7 µM (active)
- EC50 (Streptococcus): > 150 µM (not active)
- AC50 (Cytochrome P450 2D6): 22.4 µM (inconclusive)
- AC50 (Cytochrome P450 3A4 [7]): inconclusive

SMILES: CC1Cc2ccccc2N1C(=O)CSc1nc2ccccc2o1 (centres undefined)
- CC50 [9]: 26.9 µM (active)
- EC50 [10]: 9.56 µM (active)
- AC50 (INS1): > 260 µM (inactive)
- IC50 (Protein skinhead-1): > 100 µM (inactive)

SMILES: O=C(Cn1cnnc1)c1ccc(O)c(O)c1
- IC50 [11]: > 100 µM (inactive)

SMILES: Cc1nnc(/N=c2\ssnc2Cl)o1
- IC50 [1]: 1.07 µM (active)
- IC50 (Phosphomannomutase 2): > 100 µM (inactive)

SMILES: CC(=O)Nc1ccc(/C=N/Nc2nc3ccccc3[nH]2)cc1
- EC50 (BJ [2]): > 150 µM (not active)
- EC50 (BJ [3]): 5.82 µM (active)
- EC50 (BJ [4]): > 150 µM (inconclusive)
- EC50 [5]: > 150 µM (inconclusive)
- EC50 (BJ [6]): > 133 µM (inactive)

SMILES: CCS(=O)(=O)N(C)[C@@H]1c2cc(C#N)ccc2OC(C)(C)[C@H]1O
- AC50 (Cytochrome P450 3A4 [12]): 15.8 µM (inconclusive)
- AC50 (Cytochrome P450 3A4 [7]): 15.8 µM (inconclusive)
